Laboratory results reported in paper PMC9960487, “A novel Menin-MLL1 inhibitor, DS-1594a, prevents the progression of acute leukemia with rearranged MLL1 or mutated NPM1” (Cancer Cell International, 2023).

Molecular target: T1, hERG channel (Homo sapiens, UniProt Q12809)
T1 construct: gene KCNH2
Experiment: inhibition of hERG channel current (data not shown)
Type: cell-based

T1 sequence (Q12809 whole entry): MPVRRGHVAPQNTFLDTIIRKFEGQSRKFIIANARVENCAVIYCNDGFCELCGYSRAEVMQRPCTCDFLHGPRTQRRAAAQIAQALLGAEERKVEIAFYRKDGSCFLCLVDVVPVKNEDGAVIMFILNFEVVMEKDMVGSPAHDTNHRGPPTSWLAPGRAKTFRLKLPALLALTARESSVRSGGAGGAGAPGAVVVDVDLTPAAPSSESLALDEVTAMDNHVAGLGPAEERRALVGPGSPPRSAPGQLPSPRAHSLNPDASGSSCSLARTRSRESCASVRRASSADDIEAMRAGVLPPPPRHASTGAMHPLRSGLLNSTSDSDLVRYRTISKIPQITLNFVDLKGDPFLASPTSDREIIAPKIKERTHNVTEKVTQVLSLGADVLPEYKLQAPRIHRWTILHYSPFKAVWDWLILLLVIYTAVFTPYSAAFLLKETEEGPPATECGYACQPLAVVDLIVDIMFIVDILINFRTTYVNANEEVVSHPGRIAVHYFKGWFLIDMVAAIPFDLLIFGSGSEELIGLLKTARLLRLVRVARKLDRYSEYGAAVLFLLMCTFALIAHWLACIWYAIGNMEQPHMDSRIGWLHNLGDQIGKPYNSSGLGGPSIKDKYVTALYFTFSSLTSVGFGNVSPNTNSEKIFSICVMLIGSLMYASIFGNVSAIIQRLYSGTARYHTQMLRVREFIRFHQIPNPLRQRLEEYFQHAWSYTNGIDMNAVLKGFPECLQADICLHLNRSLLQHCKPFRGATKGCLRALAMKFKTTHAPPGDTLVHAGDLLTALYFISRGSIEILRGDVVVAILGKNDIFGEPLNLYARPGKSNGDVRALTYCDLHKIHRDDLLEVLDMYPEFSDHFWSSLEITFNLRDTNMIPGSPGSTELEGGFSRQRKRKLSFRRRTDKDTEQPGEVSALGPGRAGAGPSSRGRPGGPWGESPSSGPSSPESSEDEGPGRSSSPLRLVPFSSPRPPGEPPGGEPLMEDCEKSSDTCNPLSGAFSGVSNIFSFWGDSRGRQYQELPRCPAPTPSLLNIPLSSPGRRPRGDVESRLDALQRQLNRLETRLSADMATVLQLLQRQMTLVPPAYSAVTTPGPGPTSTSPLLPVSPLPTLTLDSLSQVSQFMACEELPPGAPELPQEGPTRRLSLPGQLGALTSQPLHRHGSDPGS

For `COc1cc(-c2ccc(CN[C@H]3C[C@@H](O)[C@@H](N(C)c4ncnc5sc(CC(F)(F)F)cc45)C3)cc2)nnc1OC` [DS-1594a, (1R, 2S, 4R)-4-({[4-(5,6-dimethoxypyridazin-3-yl)phenyl]methyl}amino)-2-{methyl[6-(2,2,2-trifluoroethyl)thieno[2,3-d]pyrimidin-4-yl]amino}cyclopentan-1-ol], the IC50 was 300 nM.
